Our source for the inhibition and Activity values is ChEMBL document CHEMBL5036349, “Development of potent dual PDK1/AurA kinase inhibitors for cancer therapy: Lead-optimization, structural insights, and ADME-Tox profile” (Eur J Med Chem, 2021).

Data set [1] concerns the target Histone deacetylase 4 (Homo sapiens) (UniProt P56524). The experiment in a line: Inhibition on human recombinant HDAC4 at 10 uM measured after 20 min by luminescence glo assay.
Data set [2] concerns the target T1, Histone deacetylase 8 (Homo sapiens) (UniProt Q9BY41).
T1 sequence (whole entry): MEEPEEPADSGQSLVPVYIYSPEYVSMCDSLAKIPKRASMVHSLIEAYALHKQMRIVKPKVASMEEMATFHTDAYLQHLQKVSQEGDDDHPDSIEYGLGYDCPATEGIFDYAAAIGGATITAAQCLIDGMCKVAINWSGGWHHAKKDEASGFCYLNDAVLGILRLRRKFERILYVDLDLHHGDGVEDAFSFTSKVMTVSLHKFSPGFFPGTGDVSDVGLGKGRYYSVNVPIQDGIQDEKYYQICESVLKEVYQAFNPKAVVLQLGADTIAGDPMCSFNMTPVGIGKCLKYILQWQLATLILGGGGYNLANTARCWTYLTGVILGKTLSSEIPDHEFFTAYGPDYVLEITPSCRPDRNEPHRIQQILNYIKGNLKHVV
The experiment in a line: Inhibition on human recombinant HDAC8 at 10 uM measured after 20 min by luminescence glo assay.

Data set [3] concerns the target 3',5'-cyclic-AMP phosphodiesterase 4C (Homo sapiens) (UniProt Q08493). Put plainly: Inhibition of PDE4C1 (unknown origin) at 10 uM incubated for 60 mins followed by addition of binding agent and measured after 20 mins by Fluorescence Polarization assay relative to control. The conditions noted are these: time 80.0 min. A general note: Fluorescence polarisation rises when a labelled molecule tumbles more slowly, as on binding a larger partner.

Data set [4] deals with T2, Protein deacetylase HDAC6 (Homo sapiens) (UniProt Q9UBN7).
T2 sequence (whole entry): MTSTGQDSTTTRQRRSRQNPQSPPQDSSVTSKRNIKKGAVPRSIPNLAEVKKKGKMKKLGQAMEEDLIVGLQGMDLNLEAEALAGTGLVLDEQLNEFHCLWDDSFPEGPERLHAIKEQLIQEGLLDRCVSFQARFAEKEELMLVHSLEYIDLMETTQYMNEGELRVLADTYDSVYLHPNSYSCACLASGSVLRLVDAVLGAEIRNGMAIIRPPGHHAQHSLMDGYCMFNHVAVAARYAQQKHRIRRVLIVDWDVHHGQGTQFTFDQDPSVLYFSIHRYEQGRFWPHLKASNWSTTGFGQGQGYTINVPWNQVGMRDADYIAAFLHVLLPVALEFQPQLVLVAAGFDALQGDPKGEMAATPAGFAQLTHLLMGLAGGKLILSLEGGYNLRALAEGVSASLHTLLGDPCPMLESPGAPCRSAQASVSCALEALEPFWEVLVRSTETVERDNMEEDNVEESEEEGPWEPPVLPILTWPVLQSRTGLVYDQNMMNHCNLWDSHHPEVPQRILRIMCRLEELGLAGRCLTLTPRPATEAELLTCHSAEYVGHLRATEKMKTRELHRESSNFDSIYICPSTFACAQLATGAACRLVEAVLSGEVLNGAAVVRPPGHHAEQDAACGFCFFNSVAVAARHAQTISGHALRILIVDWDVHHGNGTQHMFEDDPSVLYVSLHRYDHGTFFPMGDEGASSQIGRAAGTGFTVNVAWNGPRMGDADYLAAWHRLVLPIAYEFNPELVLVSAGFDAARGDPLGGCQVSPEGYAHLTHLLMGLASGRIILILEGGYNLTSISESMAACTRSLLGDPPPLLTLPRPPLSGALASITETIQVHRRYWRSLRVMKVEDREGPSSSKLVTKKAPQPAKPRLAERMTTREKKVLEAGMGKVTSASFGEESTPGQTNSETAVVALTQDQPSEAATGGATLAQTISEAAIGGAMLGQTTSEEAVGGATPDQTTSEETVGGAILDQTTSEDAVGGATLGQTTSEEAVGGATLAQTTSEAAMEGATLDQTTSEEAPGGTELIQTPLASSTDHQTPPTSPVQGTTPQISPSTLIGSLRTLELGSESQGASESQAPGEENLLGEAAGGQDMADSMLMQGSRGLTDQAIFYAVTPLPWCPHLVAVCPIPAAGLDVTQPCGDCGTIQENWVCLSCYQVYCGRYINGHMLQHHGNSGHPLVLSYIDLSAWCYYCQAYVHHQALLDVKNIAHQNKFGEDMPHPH
Put plainly: Inhibition on human recombinant HDAC6 at 10 uM measured after 20 min by luminescence glo assay.

Another data set relates to HEK293. Put plainly: Cytotoxicity against HEK293 cells at 10 uM measured after 24 to 48 hrs by Cell-titer glo assay relative to control. The class given is cell-based. As to conditions: human, hek293, 10 µM, time 24-48 hrs.
For data set [5], the target named is Aurora kinase B (Homo sapiens) (UniProt Q96GD4). Put plainly: Inhibition of Aurora B kinase (unknown origin) at 10 uM in presence of ATP incubated for 30 min followed by addition of kinase glo-reagent measured after 20 mins by Luminescence based plate reader assay relative to control. As to conditions: time 50.0 min. (Kinase-Glo reads ATP consumption through a luciferase reaction.)
Chain of Aurora kinase B (Homo sapiens) (Q96GD4 whole entry): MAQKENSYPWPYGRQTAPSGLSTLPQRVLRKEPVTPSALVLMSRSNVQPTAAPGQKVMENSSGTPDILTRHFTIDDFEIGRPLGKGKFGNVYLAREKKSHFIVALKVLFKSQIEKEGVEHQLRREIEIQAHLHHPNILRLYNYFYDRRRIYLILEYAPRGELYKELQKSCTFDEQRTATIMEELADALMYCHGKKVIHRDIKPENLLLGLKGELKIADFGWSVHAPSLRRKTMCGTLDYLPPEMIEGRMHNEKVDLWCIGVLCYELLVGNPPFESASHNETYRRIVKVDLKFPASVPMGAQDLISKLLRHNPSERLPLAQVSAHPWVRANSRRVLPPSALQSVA

The target in data set [6] is T3, NAD-dependent protein deacetylase sirtuin-7 (Homo sapiens) (UniProt Q9NRC8).
T3 sequence (whole entry): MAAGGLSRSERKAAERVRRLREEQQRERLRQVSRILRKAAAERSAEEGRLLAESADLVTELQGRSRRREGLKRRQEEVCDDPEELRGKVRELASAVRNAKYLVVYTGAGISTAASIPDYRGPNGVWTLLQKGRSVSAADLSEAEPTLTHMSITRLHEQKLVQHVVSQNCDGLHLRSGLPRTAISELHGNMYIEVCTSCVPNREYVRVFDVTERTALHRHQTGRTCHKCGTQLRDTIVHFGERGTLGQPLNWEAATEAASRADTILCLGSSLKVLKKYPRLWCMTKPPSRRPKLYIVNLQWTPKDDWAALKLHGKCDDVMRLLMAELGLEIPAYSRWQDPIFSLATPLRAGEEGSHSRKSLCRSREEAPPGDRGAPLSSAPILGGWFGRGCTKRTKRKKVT
Put plainly: Inhibition of human recombinant SIRT7 at 10 uM incubated for 20 mins followed by mixing and measure after 30 mins by Luminescence assay relative to control. The conditions noted are these: time 50.0 min.

Data set [7] concerns the target {'v': 'CYP2C19', 'o': 'p', 'q': 'Inhibition of CYP2C19 (unknown origin)'} (Homo sapiens, UniProt P33261). Put plainly: Inhibition of CYP2C19 (unknown origin) at 10 uM pre-incubated for 30 min followed by addition of NADPH and measured after 30 min by Luminescence based plate reader method relative to control. Format: ADME. As to conditions: time 60 min.
For data set [8], the target named is {'v': 'CYP2D6', 'o': 'p', 'q': 'Inhibition of CYP2D6 (unknown origin)'} (Homo sapiens, UniProt P10635). Put plainly: Inhibition of CYP2D6 (unknown origin) at 10 uM pre-incubated for 30 min followed by addition of NADPH and measured after 30 min by Luminescence based plate reader method relative to control. The conditions noted are these: time 60 min. The class given is ADME.
Chain of {'v': 'CYP2D6', 'o': 'p', 'q': 'Inhibition of CYP2D6 (unknown origin)'} (P10635 whole entry): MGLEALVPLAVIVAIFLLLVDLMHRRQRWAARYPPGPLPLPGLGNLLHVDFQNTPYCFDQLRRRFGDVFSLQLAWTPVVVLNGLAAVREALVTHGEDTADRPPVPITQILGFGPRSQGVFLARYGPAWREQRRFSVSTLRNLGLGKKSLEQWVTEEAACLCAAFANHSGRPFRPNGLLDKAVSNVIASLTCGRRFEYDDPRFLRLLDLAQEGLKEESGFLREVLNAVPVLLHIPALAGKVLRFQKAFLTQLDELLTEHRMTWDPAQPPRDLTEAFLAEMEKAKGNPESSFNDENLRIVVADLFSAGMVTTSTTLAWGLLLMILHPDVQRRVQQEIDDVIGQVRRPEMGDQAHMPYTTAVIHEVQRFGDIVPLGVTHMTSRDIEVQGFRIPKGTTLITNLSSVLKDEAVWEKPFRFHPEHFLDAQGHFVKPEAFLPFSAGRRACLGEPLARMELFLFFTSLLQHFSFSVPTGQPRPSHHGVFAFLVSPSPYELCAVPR

Data set [9] addresses {'v': 'CYP3A4', 'o': 'p', 'q': 'Inhibition of CYP3A4 (unknown origin)'} (Homo sapiens, UniProt P08684). The experiment in a line: Inhibition of CYP3A4 (unknown origin) at 10 uM pre-incubated for 30 min followed by addition of NADPH and measured after 30 min by Luminescence based plate reader method relative to control. The class given is ADME. As to conditions: time 60 min.

Chain of {'v': 'CYP2C19', 'o': 'p', 'q': 'Inhibition of CYP2C19 (unknown origin)'} (P33261 whole entry): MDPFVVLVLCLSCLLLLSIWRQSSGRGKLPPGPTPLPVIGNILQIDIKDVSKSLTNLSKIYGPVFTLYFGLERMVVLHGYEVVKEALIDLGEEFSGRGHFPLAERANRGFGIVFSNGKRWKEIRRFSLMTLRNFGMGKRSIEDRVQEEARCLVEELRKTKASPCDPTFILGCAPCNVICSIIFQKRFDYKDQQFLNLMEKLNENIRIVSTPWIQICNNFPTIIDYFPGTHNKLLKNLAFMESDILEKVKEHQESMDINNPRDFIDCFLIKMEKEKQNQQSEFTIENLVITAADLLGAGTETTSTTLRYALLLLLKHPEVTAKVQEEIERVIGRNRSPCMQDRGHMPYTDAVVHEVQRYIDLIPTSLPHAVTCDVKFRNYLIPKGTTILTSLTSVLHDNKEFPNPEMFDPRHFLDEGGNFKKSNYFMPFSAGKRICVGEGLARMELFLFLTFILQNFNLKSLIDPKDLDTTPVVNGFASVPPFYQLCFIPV
Chain of Histone deacetylase 4 (Homo sapiens) (P56524 whole entry): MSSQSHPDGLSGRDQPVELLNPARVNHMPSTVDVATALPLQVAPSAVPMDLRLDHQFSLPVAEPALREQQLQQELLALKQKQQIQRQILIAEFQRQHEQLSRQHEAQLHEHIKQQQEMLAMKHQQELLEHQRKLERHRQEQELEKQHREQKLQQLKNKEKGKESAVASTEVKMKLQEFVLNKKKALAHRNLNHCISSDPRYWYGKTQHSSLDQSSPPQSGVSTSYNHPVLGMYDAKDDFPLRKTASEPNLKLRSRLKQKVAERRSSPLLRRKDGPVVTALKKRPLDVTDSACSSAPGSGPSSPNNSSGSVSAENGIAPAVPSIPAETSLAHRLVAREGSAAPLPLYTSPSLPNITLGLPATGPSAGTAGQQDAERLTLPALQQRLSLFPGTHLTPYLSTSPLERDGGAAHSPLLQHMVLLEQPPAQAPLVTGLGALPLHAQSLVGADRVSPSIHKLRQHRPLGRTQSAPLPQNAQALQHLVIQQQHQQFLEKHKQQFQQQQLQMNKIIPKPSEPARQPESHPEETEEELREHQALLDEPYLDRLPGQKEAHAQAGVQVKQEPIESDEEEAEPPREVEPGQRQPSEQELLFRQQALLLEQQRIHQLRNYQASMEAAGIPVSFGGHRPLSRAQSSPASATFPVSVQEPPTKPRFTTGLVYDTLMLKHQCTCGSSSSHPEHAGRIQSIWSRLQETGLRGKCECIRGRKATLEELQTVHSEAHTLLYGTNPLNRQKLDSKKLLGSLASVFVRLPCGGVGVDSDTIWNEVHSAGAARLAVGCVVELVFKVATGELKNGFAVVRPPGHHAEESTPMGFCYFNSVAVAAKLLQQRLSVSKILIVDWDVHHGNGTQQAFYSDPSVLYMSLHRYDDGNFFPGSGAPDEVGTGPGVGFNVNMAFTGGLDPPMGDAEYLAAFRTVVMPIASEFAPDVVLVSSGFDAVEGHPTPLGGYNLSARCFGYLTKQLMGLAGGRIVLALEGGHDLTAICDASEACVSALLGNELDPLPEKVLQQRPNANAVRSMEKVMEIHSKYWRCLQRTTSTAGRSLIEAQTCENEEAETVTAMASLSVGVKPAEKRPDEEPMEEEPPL
Chain of 3',5'-cyclic-AMP phosphodiesterase 4C (Homo sapiens) (Q08493 whole entry): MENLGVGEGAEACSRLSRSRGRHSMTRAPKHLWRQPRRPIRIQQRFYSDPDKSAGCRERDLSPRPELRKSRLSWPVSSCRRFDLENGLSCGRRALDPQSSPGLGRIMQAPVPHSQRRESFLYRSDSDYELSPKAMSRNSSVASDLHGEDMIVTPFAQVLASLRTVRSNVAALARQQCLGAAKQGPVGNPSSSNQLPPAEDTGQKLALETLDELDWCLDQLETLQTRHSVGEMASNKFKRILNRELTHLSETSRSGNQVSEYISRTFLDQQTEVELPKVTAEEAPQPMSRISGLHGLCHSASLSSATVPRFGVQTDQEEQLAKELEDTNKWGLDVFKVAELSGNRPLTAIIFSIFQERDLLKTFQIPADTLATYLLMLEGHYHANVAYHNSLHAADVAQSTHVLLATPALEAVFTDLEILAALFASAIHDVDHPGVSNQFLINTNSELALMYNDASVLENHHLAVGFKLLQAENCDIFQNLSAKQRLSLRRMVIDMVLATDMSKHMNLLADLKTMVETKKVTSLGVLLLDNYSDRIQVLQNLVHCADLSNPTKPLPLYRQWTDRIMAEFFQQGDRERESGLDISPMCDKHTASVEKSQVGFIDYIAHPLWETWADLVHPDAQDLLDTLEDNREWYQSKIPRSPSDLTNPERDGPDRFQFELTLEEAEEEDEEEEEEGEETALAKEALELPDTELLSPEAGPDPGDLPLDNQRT
Chain of {'v': 'CYP3A4', 'o': 'p', 'q': 'Inhibition of CYP3A4 (unknown origin)'} (P08684 whole entry): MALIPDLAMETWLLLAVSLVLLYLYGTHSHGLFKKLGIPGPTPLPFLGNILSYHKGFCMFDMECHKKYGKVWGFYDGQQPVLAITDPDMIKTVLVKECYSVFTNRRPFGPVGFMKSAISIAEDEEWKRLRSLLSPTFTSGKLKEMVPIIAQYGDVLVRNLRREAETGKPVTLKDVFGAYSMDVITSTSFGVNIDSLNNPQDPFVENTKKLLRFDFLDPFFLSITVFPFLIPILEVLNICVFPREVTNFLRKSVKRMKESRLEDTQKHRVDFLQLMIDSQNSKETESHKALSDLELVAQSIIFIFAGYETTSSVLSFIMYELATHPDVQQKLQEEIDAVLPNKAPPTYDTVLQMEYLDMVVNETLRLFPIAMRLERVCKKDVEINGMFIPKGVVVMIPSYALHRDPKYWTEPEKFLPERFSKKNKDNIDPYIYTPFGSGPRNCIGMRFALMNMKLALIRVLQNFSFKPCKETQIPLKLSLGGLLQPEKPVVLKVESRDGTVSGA

What is called inhibition is how much of the control response was suppressed. Turning to `O=C1Nc2ccc(NC(=O)[C@H](NC(=O)c3cccn(Cc4ccc(F)c(F)c4)c3=O)c3ccccc3)cc2/C1=C/c1cnc[nH]1` (stereo in doubt), the inhibition in [1] is < 30%; in data set [2] it was < 30%; in data set [3] it was < 30%; in [4] it was < 30%; in [5], < 20%; in [6], < 30%. Also, in the data set on HEK293, the Activity is < 25%.

As to `Cc1ccc(C(=O)NCC(=O)Nc2ccc3c(c2)/C(=C/c2cnc[nH]2)C(=O)N3)c(=O)n1Cc1ccc(F)c(F)c1`, the inhibition at 0.5 h, 10 µM in data set [7], in data set [8] and in data set [9] was > 90% each time. Also, the inhibition in data set [1] was < 30%; in [2], < 30%; in [3], < 30%; in data set [4] it was < 30%; in data set [5], < 20%; in data set [6], < 30%. In addition, in the data set on HEK293, the Activity is given as < 25%.

On to `O=C(CCNC(=O)c1cccn(Cc2ccc(F)c(F)c2)c1=O)Nc1ccc2c(c1)/C(=C/c1cnc[nH]1)C(=O)N2`, for which the inhibition at 0.5 h, 10 µM in data set [7], in [8] and in [9] was > 90% throughout. Besides, the inhibition is < 30% in [1]; < 30% in data set [2]; < 30% in data set [3]; < 30% in data set [4]; < 20% in [5]; < 30% in data set [6]. In addition, in the data set with HEK293, the Activity is listed as < 25%.

Consider `Cc1c(Br)cc(C(=O)N[C@@H](C(=O)Nc2ccc3c(c2)/C(=C/c2cnc[nH]2)C(=O)N3)c2ccccc2)c(=O)n1Cc1ccc(F)c(F)c1`, for which the inhibition at 0.5 h, 10 µM in data set [7], in data set [8] and in data set [9] was < 45% throughout. In addition, the inhibition in data set [1] was < 30%; in data set [2] it was < 30%; in data set [3] it was < 30%; in [4], < 30%; in [5], < 20%; in data set [6], < 30%. In addition, the Activity with HEK293 is < 25%.
